Laboratory results from BindingDB's records for doi:10.1021/jm030585i (Merck Research Laboratories, 2004).

Molecular target: T1, Mineralocorticoid receptor (Rattus norvegicus, UniProt P22199)
T1 sequence (P22199 whole entry): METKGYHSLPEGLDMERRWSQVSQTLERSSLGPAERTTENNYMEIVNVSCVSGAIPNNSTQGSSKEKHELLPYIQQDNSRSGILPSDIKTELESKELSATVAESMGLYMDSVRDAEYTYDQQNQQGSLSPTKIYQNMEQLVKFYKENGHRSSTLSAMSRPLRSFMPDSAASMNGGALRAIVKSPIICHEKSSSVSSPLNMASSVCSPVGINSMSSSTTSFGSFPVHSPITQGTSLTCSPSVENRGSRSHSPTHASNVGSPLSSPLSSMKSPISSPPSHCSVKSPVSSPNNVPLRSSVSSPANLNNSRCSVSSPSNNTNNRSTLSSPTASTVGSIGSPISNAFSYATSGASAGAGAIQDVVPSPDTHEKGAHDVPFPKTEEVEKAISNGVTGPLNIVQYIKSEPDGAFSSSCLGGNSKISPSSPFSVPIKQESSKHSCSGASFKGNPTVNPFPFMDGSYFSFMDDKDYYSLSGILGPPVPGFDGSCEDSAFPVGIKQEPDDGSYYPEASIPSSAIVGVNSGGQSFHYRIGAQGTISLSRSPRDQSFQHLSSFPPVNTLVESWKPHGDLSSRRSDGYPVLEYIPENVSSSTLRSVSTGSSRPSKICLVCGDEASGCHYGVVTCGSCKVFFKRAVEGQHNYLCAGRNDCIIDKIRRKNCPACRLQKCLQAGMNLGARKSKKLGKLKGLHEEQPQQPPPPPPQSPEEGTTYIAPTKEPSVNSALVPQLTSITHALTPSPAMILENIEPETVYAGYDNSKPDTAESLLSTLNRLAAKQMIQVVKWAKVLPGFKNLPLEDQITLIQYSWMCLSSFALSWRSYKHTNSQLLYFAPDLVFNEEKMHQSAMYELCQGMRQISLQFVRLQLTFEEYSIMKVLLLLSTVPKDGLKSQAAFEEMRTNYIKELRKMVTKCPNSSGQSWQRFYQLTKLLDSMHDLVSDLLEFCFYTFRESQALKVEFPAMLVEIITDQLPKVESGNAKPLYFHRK

Structure (SMILES)	IC50 [µM]
C[C@]12Cc3cnn(-c4ccc(F)cc4)c3C=C1CCC[C@@H]2[C@](C)(O)c1ccc(F)cc1 [(1S)-1-[(4aR,5S)-1-(4-fluorophenyl)-4a-methyl-1H,4H,4aH,5H,6H,7H,8H-cyclohexa[f]indazol-5-yl]-1-(4-fluorophenyl)ethan-1-ol]	> 5
C=CCC[C@H](O)[C@H]1CCCC2=Cc3c(cnn3-c3ccc(F)cc3)C[C@@]21C [(1S)-1-[(4aR,5S)-1-(4-fluorophenyl)-4a-methyl-1H,4H,4aH,5H,6H,7H,8H-cyclohexa[f]indazol-5-yl]pent-4-en-1-ol]	> 5
COc1cc([C@H](O)[C@H]2CCCC3=Cc4c(cnn4-c4ccc(F)cc4)C[C@@]32C)cc(F)c1F [(R)-[(4aR,5S)-1-(4-fluorophenyl)-4a-methyl-1H,4H,4aH,5H,6H,7H,8H-cyclohexa[f]indazol-5-yl](3,4-difluoro-5-methoxyphenyl)methanol]	> 5
C[C@]12Cc3cnn(-c4ccc(F)cc4)c3C=C1CCC[C@@H]2[C@@H](O)c1ccccc1 [(R)-[(4aR,5S)-1-(4-fluorophenyl)-4a-methyl-1H,4H,4aH,5H,6H,7H,8H-cyclohexa[f]indazol-5-yl](phenyl)methanol]	> 5
C[C@]12Cc3cnn(-c4ccc(F)cc4)c3C=C1CCC[C@@H]2[C@@H](O)c1ccc(F)cc1 [BMCL173354 benzo[f]indazole, 6]	> 5
C[C@]12Cc3cnn(-c4ccc(F)cc4)c3C=C1CCC[C@@H]2[C@H](O)c1ccc(F)cc1 [BMCL173354 benzo[f]indazole, 7]	> 5
